Data as given in the supplement of paper PMC10307832.

Assays:
Assay in all cases: relative viability (nuclei count vs DMSO), 5 days (fraction); higher = more cells survive
[1] = compound: Cc1cnc(Nc2ccc(OCCN3CCCC3)cc2)nc1Nc1cccc(S(=O)(=O)NC(C)(C)C)c1 [Fedratinib] + Nc1ncn([C@H]2C[C@H](O)[C@@H](CO)O2)c(=O)n1 [Decitabine] (partner 2 µM)
Summary of the method: (§1)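 After 5 days of treatment, lung cancer cells in 1536-well plates were fixed and stained in a single step (final 0.05% Triton X-100, 1% formaldehyde, 1 ug/ml Hoechst) and their nuclei counted on 4× images. Treatment had been applied by pin tool the day after seeding as one drug alone or as a fixed anchor-drug dose with five library-drug doses (not always all listed) in √10 steps. Relative viability is the nuclei count of treated wells divided by that of vehicle wells, and values are medians of duplicate plates.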

[2] = compound: COC1=CC=C(C=C1)COC2=C(C=C(C=C2)CC3=CN=C(N=C3N)N)OC [GW-2580] + O=C(c1cc(Cc2n[nH]c(=O)c3ccccc23)ccc1F)N1CCN(C(=O)C2CC2)CC1 [Olaparib] (partner 8 µM)
Summary of the method: as §1

[3] = compound: COC1=CC=C(C=C1)COC2=C(C=C(C=C2)CC3=CN=C(N=C3N)N)OC [GW-2580] + CS(=O)(=O)CCNCc1ccc(-c2ccc3ncnc(Nc4ccc(OCc5cccc(F)c5)c(Cl)c4)c3c2)o1 [Lapatinib] (partner 2 µM)
Summary of the method: as §1

[4] = compound: Cc1cnc(Nc2ccc(OCCN3CCCC3)cc2)nc1Nc1cccc(S(=O)(=O)NC(C)(C)C)c1 [Fedratinib] + COc1cccc2cc(-c3nc([C@H]4CC[C@H](C(=O)O)CC4)n4ncnc(N)c34)[nH]c12 [OSI-027] (partner 0.5 µM)
Summary of the method: as §1

[5] = compound: Cc1cnc(Nc2ccc(OCCN3CCCC3)cc2)nc1Nc1cccc(S(=O)(=O)NC(C)(C)C)c1 [Fedratinib] + Cc1cc(Nc2cc(N3CCN(C)CC3)nc(Sc3ccc(NC(=O)C4CC4)cc3)n2)n[nH]1 [Tozasertib] (partner 0.1 µM)
Summary of the method: as §1

[6] = compound: Cc1cnc(Nc2ccc(OCCN3CCCC3)cc2)nc1Nc1cccc(S(=O)(=O)NC(C)(C)C)c1 [Fedratinib] + Nc1nc2[nH]cc(CCc3ccc(C(=O)N[C@@H](CCC(=O)O)C(=O)O)cc3)c2c(=O)[nH]1 [Pemetrexed] (partner 0.2 µM)
Summary of the method: as §1

| Cell Line | relative viability ([1]; first compound 0.1 µM) | relative viability ([1]; first compound 0.3162 µM) | relative viability ([1]; first compound 1 µM) | relative viability ([2]; first compound 0.08 µM) | relative viability ([2]; first compound 0.8 µM) | relative viability ([2]; first compound 2.53 µM) | relative viability ([2]; first compound 8 µM) | relative viability ([3]; first compound 0.08 µM) | relative viability ([3]; first compound 0.8 µM) | relative viability ([3]; first compound 2.53 µM) | relative viability ([3]; first compound 8 µM) | relative viability ([4]; first compound 0.1 µM) | relative viability ([4]; first compound 0.3162 µM) | relative viability ([4]; first compound 1 µM) | relative viability ([5]; first compound 0.1 µM) | relative viability ([5]; first compound 0.3162 µM) | relative viability ([5]; first compound 1 µM) | relative viability ([6]; first compound 0.1 µM) | relative viability ([6]; first compound 0.3162 µM) | relative viability ([6]; first compound 1 µM) |
| --- | --- | --- | --- | --- | --- | --- | --- | --- | --- | --- | --- | --- | --- | --- | --- | --- | --- | --- | --- | --- |
| NCI-H1793 | 0.501 | 0.526 | 0.406 | 0.892 | 1.02 | 0.822 | 0.804 | 0.803 | 0.74 | 0.571 | 0.459 | 0.237 | 0.271 | 0.234 | 0.263 | 0.353 | 0.288 | 0.81 | 0.847 | 0.724 |
| NCI-H1915 | 0.266 | 0.258 | 0.247 | 0.222 | 0.233 | 0.293 | 0.259 | 1.13 | 1.05 | 1.04 | 1.03 | 0.612 | 0.67 | 0.319 | 0.329 | 0.417 | 0.328 | 0.599 | 0.464 | 0.425 |
| NCI-H1944 | 0.435 | 0.451 | 0.421 | 0.427 | 0.432 | 0.378 | 0.399 | 0.843 | 0.98 | 0.82 | 0.897 | 0.343 | 0.413 | 0.344 | 0.25 | 0.225 | 0.209 | 0.665 | 0.643 | 0.624 |
| NCI-H1975 | 0.372 | 0.315 | 0.343 | 0.815 | 0.864 | 0.874 | 0.806 | 0.925 | 1.09 | 0.885 | 0.834 | 0.729 | 0.833 | 0.602 | 0.44 | 0.734 | 0.389 | 0.29 | 0.306 | 0.272 |
| NCI-H1993 | 0.473 | 0.725 | 0.704 | 0.985 | 1.07 | 1.06 | 1.04 | 0.775 | 0.904 |  | 0.907 | 0.519 | 0.522 | 0.524 | 0.58 | 0.575 | 0.596 | 0.523 | 0.513 | 0.589 |
| NCI-H2009 | 0.368 | 0.406 | 0.356 | 0.752 | 0.698 | 0.918 | 0.645 | 0.966 | 0.894 | 0.91 | 0.857 | 0.529 | 0.632 | 0.455 | 0.547 | 0.792 | 0.652 | 0.985 | 0.97 | 1.01 |
| NCI-H2023 | 0.21 | 0.23 | 0.117 | 0.541 | 0.589 | 0.457 | 0.511 | 0.899 | 0.964 | 0.633 | 0.797 | 0.393 | 0.394 | 0.328 | 0.226 | 0.289 | 0.281 | 0.272 | 0.254 | 0.158 |
